Measurements taken from article PMC9133015 (Nature Communications, 2022).
“And” between values parts separate entries of the source, which are not always exact repeats. Equal entries are not always repeated. Where two headings read alike, the source gives them in different places.

Target: T1, DYRK2 (Homo sapiens, UniProt Q92630)
T1 construct: purchased Reaction Biology Corporation (assay service)
T1 sequence (Q92630 1-601): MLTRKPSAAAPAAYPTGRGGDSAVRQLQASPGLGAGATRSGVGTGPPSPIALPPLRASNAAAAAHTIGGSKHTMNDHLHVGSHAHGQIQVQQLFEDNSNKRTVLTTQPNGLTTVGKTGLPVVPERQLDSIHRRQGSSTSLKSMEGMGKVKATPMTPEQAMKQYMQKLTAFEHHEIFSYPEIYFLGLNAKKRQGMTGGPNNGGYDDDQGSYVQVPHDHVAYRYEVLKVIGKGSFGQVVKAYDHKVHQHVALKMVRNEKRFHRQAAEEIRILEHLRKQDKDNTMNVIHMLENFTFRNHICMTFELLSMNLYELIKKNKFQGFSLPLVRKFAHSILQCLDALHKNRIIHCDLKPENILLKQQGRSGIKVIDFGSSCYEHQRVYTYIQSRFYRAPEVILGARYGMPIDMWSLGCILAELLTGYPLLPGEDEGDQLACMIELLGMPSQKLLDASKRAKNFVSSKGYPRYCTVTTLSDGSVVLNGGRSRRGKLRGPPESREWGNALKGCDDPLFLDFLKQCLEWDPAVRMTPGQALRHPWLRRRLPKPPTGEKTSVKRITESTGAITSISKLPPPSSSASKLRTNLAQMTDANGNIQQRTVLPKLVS
Test: DYRKs kinase activity assay (33P-ATP, DYRKtide substrate): DYRK2
Type: biochemical
Settings: for DYRK2 inhibitory activity (in words): structural optimization of lead 12

[1] = DYRK2 kinase, Conc. 0.000508053 µM, duplicate values
[2] = DYRK2 kinase, Conc. 0.00152416 µM, duplicate values
[3] = DYRK2 kinase, Conc. 0.00457247 µM, duplicate values
[4] = DYRK2 kinase, Conc. 0.0137174 µM, duplicate values
[5] = DYRK2 kinase, Conc. 0.0411523 µM, duplicate values
[6] = DYRK2 kinase, Conc. 0.123457 µM, duplicate values
[7] = DYRK2 kinase, Conc. 0.37037 µM, duplicate values
[8] = DYRK2 kinase, Conc. 1.11111 µM, duplicate values
[9] = DYRK2 kinase, Conc. 3.33333 µM, duplicate values
[10] = DYRK2 kinase, Conc. 10 µM, duplicate values
[11] = Supplementary Table 1, read-out: IC50 (μM), DYRK2 kinase
[12] = DYRK2 kinase, Conc. 1.66667 µM, duplicate values
[13] = DYRK2 kinase, Conc. 1.11111 µM, duplicate values, read-out: % Inhibition
[14] = DYRK2 kinase, Conc. 10 µM, duplicate values, read-out: % Inhibition
[15] = DYRK2 kinase, Conc. 0.00152416 µM, duplicate values, read-out: % Inhibition
[16] = DYRK2 kinase, Conc. 0.0137174 µM, duplicate values, read-out: % Inhibition
[17] = DYRK2 kinase, Conc. 0.0411523 µM, duplicate values, read-out: % Inhibition
[18] = DYRK2 kinase, Conc. 0.123457 µM, duplicate values, read-out: % Inhibition
[19] = DYRK2 kinase, Conc. 0.37037 µM, duplicate values, read-out: % Inhibition
[20] = DYRK2 kinase, Conc. 3.33333 µM, duplicate values, read-out: % Inhibition

| SMILES | % Inhibition [1] | % Inhibition [2] | % Inhibition [3] | % Inhibition [4] | % Inhibition [5] | % Inhibition [6] | % Inhibition [7] | % Inhibition [8] | % Inhibition [9] | % Inhibition [10] | IC50 [11] | inhibition at 1.11111 µM [13] | inhibition at 10 µM [14] | inhibition at 3.33333 µM [20] | also measured |
| --- | --- | --- | --- | --- | --- | --- | --- | --- | --- | --- | --- | --- | --- | --- | --- |
| CC(=NNc1nc2c(c(=O)n(Cc3ccccc3)c(=O)n2C)n1Cc1ccccc1)c1ccccc1 [Compound 5] | 1.24% and 7.59% | -1.11% and 5.39% | 11.00% and 16.72% | 2.77% and 9.02% | 5.65% and 11.72% | 2.54% and 8.81% | 4.47% and 10.61% | 17.84% and 23.14% | 28.55% and 33.16% | 29.52% and 31.99% | > 10 µM | – | – | – | – |
| Cn1c(=O)c2ncn(CC(=O)Nc3ccc4oc(-c5ccc(Cl)cc5Cl)nc4c3)c2n(C)c1=O [Compound 10] | -7.03% and -8.01% | -4.24% and -5.18% | -3.26% and -1.51% | -9.75% and -7.91% | -10.96% and -9.20% | 0.34% and -3.30% | 1.49% and 3.01% | 15.95% and 17.31% | 6.96% and 8.47% | 22.24% and 25.76% | > 10 µM | – | – | – | – |
| CCN1CCN(C(=O)c2ccc(Nc3ncc(F)c(-c4ccc5nc(N(C)C)sc5c4)n3)nc2)CC1 [Compound 26 (YK-2-69)] | – | – | – | – | – | – | – | – | – | – | – | – | – | – | % Inhibition (DYRK2 kinase, Conc. 0.000762079 µM, duplicate values): 2.89% and 7.10%; % Inhibition (DYRK2 kinase, Conc. 0.00228624 µM, duplicate values): 21.49%; inhibition at 0.00228624 µM (DYRK2 kinase, Conc. 0.00228624 µM, duplicate values, read-out: % Inhibition): 26.1%; % Inhibition (DYRK2 kinase, Conc. 0.00685871 µM, duplicate values): 46.13%; inhibition at 0.00685871 µM (DYRK2 kinase, Conc. 0.00685871 µM, duplicate values, read-out: % Inhibition): 53%; % Inhibition (DYRK2 kinase, Conc. 0.0205761 µM, duplicate values): 59.65%; inhibition at 0.0205761 µM (DYRK2 kinase, Conc. 0.0205761 µM, duplicate values, read-out: % Inhibition): 65.2%; % Inhibition (DYRK2 kinase, Conc. 0.0617284 µM, duplicate values): 82.13%; inhibition at 0.0617284 µM (DYRK2 kinase, Conc. 0.0617284 µM, duplicate values, read-out: % Inhibition): 82.1%; % Inhibition (DYRK2 kinase, Conc. 0.185185 µM, duplicate values): 93.18%; inhibition at 0.185185 µM (DYRK2 kinase, Conc. 0.185185 µM, duplicate values, read-out: % Inhibition): 94.1%; % Inhibition (DYRK2 kinase, Conc. 0.555556 µM, duplicate values): 96.77%; inhibition at 0.555556 µM (DYRK2 kinase, Conc. 0.555556 µM, duplicate values, read-out: % Inhibition): 96.8%; % Inhibition [12]: 98.11%; inhibition at 1.66667 µM [12]: 97.3%; % Inhibition (DYRK2 kinase, Conc. 5 µM, duplicate values): 97.16%; inhibition at 5 µM (DYRK2 kinase, Conc. 5 µM, duplicate values, read-out: % Inhibition): 97.8% |
| CCN1CCN(Cc2ccc(Nc3ncc(F)c(-c4cnc5ccnn5c4)n3)nc2)CC1 [Compound 19] | -1.87% and -5.39% | -4.33% and -7.82% | -8.64% and -11.90% | -12.62% and -14.01% | -8.54% and -12.22% | 0.35% and 0.01% | 1.52% and -0.10% | 6.04% | 1.80% and -0.24% | 26.16% | – | 8.33% | 28% | – | DYRK2 inhibitory activity (in words): significantly decreased |
| COc1ccc(C2CC(c3ccc(Cl)cc3)=NN2c2ccc(C=NNc3ccccc3)cc2)cc1 (stereo not drawn) [Compound 3] | 1.91% and 4.22% | 6.35% and 8.58% | 2.63% and 4.93% | 8.54% and 10.71% | 6.26% and 8.49% | 10.47% and 12.60% | 12.78% and 14.86% | 20.14% and 19.70% | 22.94% and 20.08% | 22.88% and 24.74% | > 10 µM | – | – | – | – |
| CCN1CCN(C(=O)c2ccc(Nc3nc(-c4ccc5nc(N(C)C)sc5c4)c4sccc4n3)nc2)CC1 [Compound 27] | -2.37% and 0.19% | 1.48% | 3.31% and -4.82% | 5.42% and 2.62% | -2.71% and -6.99% | 2.56% and -2.91% | 3.14% and 0.34% | -1.20% and -1.05% | 2.76% | 7.55% | – | – | 7.66% | 2.35% | inhibition at 0.00152416 µM [15]: 1.6%; DYRK2 inhibitory activity (in words): no inhibition |
| CCN1CCN(Cc2ccc(Nc3ncc(F)c(-c4ccc5ncsc5c4)n3)nc2)CC1 [Compound 16] | 0.29% and 3.35% | -2.64% and 1.62% | 1.68% and 3.59% | 8.22% | 26.26% | 48.52% | 63.31% | 68.60% | 73.48% | 77.29% | – | 68.6% | 76.9% | 73.6% | inhibition at 0.0137174 µM [16]: 6.53%; inhibition at 0.0411523 µM [17]: 23.1%; inhibition at 0.123457 µM [18]: 47.2%; inhibition at 0.37037 µM [19]: 64.2% |
| CCN1CCN(C(=O)c2cnc(Nc3ncc(F)c(-c4ccc5ncsc5c4)n3)nc2)CC1 [Compound 22] | -2.89% | – | 2.13% | – | – | 26.76% | – | 58.80% | 75.98% | 87.41% | – | 58.5% | 87.2% | 76.2% | inhibition at 0.00152416 µM [15]: 0.87%; inhibition at 0.00457247 µM [3]: 2.31%; inhibition at 0.0137174 µM [16]: 3.91%; inhibition at 0.0411523 µM [17]: 13.2%; inhibition at 0.123457 µM [18]: 25%; inhibition at 0.37037 µM [19]: 35.1%; IC50 (read-out: DYRK2 IC50): 0.697 µM |

Second part, led by results:

| % Inhibition [1] | % Inhibition [2] | % Inhibition [3] | % Inhibition [4] | % Inhibition [5] | % Inhibition [6] | % Inhibition [7] | % Inhibition [8] | % Inhibition [9] | % Inhibition [10] | IC50 [11] | inhibition at 1.11111 µM [13] | inhibition at 10 µM [14] | inhibition at 3.33333 µM [20] | SMILES | also measured |
| --- | --- | --- | --- | --- | --- | --- | --- | --- | --- | --- | --- | --- | --- | --- | --- |
| -2.60% and -0.07% | -3.65% and -2.08% | -3.85% and -2.28% | -16.34% and -14.56% | -10.92% and -10.74% | -6.09% and -4.48% | -6.00% and -2.89% | -5.16% and -3.57% | 2.31% and 3.77% | 17.16% and 18.38% | > 10 µM | – | – | – | O=C(c1cccc(Cn2cc(Br)c([N+](=O)[O-])n2)c1)N1CCN(C(=O)c2ccco2)CC1 [Compound 8] | – |
| 9.05% | 8.33% | 11.99% | 16.84% | 38.81% | 56.81% | 75.73% | 88.57% | 94.50% | 95.74% | – | 86.9% | 96.6% | 95.3% | Cl.Fc1cnc(Nc2ccc(N3CCNCC3)cn2)nc1-c1ccc2ncsc2c1 [Compound 21] | inhibition at 0.000508053 µM [1]: 8.81%; inhibition at 0.00152416 µM [15]: 12.2%; inhibition at 0.00457247 µM [3]: 13.8%; inhibition at 0.0137174 µM [16]: 14%; inhibition at 0.0411523 µM [17]: 36.7%; inhibition at 0.123457 µM [18]: 55.4%; inhibition at 0.37037 µM [19]: 74%; IC50 (read-out: DYRK2 IC50): 0.085 µM |
| -0.64% and -0.50% | -10.49% and -4.61% | -7.80% and -6.47% | 2.76% and 2.77% | 5.64% and 5.65% | 2.54% | 6.34% and 2.72% | 14.05% and 16.10% | 22.86% and 21.57% | 38.49% and 39.53% | > 10 µM | – | – | – | O=C(COc1ccccc1-c1ccnn1-c1ccccc1)NN=Cc1coc2ccc(Cl)cc2c1=O [Compound 11] | – |
